Experimental data: paper PMC9414302, “UPLC-ESI-QTRAP-MS/MS Analysis to Quantify Bioactive Compounds in Fennel (Foeniculum vulgare Mill.) Waste with Potential Anti-Inflammatory Activity” (Metabolites, 2022)
Read-outs that look alike come from different tables or passages of the source.

Tests used:
[1] = target: T1, COX-2 (Homo sapiens, UniProt P35354); experiment: COX inhibitor screening fluorometric assay (COX-2); type: biochemical
T1 construct: purchased Cayman Chemicals 700100
T1 sequence (P35354 18-604): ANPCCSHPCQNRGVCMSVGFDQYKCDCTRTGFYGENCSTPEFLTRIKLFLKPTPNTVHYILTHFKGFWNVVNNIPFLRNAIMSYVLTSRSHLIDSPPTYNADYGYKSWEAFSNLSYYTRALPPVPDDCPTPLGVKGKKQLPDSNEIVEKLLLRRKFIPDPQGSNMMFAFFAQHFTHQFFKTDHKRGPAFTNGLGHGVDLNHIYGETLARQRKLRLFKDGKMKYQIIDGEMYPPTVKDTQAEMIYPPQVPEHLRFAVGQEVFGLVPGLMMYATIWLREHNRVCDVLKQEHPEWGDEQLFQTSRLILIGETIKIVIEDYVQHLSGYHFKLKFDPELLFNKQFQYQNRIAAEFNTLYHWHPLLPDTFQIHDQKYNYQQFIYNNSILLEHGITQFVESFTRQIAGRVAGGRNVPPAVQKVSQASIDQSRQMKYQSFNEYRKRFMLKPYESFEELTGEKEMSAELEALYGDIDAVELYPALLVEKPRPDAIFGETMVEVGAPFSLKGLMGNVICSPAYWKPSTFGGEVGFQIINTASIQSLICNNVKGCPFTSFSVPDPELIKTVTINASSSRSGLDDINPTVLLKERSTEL
Protocol: (§1) Anti-inflammatory activity was evaluated determining the capacity of some major metabolites of F. vulgare to inhibit the cyclooxygenase activity (COX). […] The assay uses the peroxidase component of COXs. The reaction between PGG2 and ADHP creates resorufin, a highly fluorescent compound. […] The inhibition of COXs is directly proportional to the reduction of resorufin fluorescence.
(§2) The analyses were made in triplicate and the results are expressed as the mean of the IC50 (µM) ± the standard deviation.

[2] = target: T2, COX-1 (Ovis aries, UniProt P05979); experiment: COX inhibitor screening fluorometric assay (COX-1); type: biochemical
T2 construct: purchased Cayman Chemicals 700100
T2 sequence (P05979 25-600): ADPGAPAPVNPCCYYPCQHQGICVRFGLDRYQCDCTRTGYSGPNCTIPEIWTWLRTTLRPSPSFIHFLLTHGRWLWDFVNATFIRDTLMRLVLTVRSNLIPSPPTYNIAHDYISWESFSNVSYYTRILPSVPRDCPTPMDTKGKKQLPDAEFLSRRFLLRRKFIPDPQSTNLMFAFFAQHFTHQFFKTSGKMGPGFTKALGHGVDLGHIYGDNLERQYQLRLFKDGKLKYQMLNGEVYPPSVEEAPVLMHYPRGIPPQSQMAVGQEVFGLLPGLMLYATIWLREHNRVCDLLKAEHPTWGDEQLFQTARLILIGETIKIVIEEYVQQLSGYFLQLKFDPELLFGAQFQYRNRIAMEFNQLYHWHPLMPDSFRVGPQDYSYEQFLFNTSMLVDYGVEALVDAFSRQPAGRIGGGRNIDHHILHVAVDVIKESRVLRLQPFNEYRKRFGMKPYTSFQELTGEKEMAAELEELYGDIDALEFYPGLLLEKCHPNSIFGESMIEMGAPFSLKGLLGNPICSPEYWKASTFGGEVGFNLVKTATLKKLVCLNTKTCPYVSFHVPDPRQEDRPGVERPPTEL
Protocol: as §1, §2

[3] = fluorometric assay (resorufin, ex 535 nm / em 590 nm), mean of three determinations ± SD, metabolites tested at 25, 50, 100 and 150 µM, SC-560 at 2, 4, 8 and 10 nM

| Compound | IC50 [1] | IC50 [2] | IC50 [2, 3] |
| --- | --- | --- | --- |
| O=C(/C=C/c1ccc(O)c(O)c1)OC1C(O)CC(OC(=O)/C=C/c2ccc(O)c(O)c2)(C(=O)O)CC1O (stereo not drawn) [Dicaffeoylquinic acid, dicaffeoylquinic acid] | 14.8 ± 2.39 µM | 85.6 ± 10.9 µM |  |
| COc1cc(-c2oc3cc(O)cc(O)c3c(=O)c2OC2OC(C(=O)O)C(O)C(O)C2O)ccc1O (stereo not drawn) [Isorhamnetin glucuronide, isorhamnetin glucuronide] |  |  | 94.7 ± 1.22 µM |
| O=C(O)C1OC(Oc2c(-c3ccc(O)cc3)oc3cc(O)cc(O)c3c2=O)C(O)C(O)C1O (stereo not drawn) [Kaempferol glucuronide, kaempferol glucuronide] |  |  | 228 ± 16.8 µM |
| O=c1c(O[C@@H]2O[C@H](CO)[C@@H](O)[C@H](O)[C@H]2O)c(-c2ccc(O)c(O)c2)oc2cc(O)cc(O)c12 [Quercetin glucoside, quercetin glucoside] |  | 103 ± 8.66 µM |  |
| O=C(O)[C@H]1O[C@@H](Oc2c(-c3ccc(O)c(O)c3)oc3cc(O)cc(O)c3c2=O)[C@H](O)[C@@H](O)[C@@H]1O [Quercetin glucuronide, quercetin glucuronide] |  |  | 571 ± 40 µM |
